The source of these data is patent publication US20200190090A1, “OREXIN RECEPTOR ANTAGONISTS” (BENEVOLENTAI BIO LIMITED, priority 2017, published 2020).

The target of assay [1] is T1, human recombinant OX1 (hOX1R) receptor (Homo sapiens, UniProt O43613).
T1 construct: expressed in transfected cells; host or cells: CHO cell line (membranes)
T1 sequence (O43613 1-425): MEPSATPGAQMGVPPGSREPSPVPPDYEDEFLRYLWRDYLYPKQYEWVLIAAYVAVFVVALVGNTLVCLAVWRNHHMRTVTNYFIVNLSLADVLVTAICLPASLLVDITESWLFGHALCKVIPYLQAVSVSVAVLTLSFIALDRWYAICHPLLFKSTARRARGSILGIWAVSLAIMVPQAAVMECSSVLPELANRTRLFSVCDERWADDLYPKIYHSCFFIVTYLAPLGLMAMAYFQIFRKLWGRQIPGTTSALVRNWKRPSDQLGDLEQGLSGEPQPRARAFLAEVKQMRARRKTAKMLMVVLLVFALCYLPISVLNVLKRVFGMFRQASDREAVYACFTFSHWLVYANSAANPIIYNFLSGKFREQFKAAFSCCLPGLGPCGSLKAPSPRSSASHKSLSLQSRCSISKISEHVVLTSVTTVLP
As to the kind of experiment: Scintillation Proximity binding Assay (SPA), [3H]-SB674042 displacement, membranes of CHO cell line transformed with hOX1R. The following applies: for Ki: 60 min, Cheng-Prusoff from IC50, geometric mean, read-out: hOX1R Binding pKi (60 min) (converted); for IC50: SPA, [3H]-SB674042, room temperature (19° C.), GeoMean, read-out: IC50 OX1R. How it is done: (§1) The in vitro binding affinity of 6-[(3aS,4S,6aR)-5-(2-fluoro-4-methoxybenzoyl)-4-methyl-octahydropyrrolo[3,4-c]pyrrol-2-yl]-2,4-dimethylpyridine-3-carbonitrile 3278/6 (the compound of Example 1) for human recombinant OX1 (hOX1R) and OX2 (hOX2R) receptors was determined using a Scintillation Proximity binding Assay (SPA).
(§2) A 96-well plate SPA was developed using antagonist radioligands (OX-radioligands); [3H]-SB674042 (Langmead et al., 2004; Malherbe et al., 2009a) for hOX1R and [3H]-EMPA (Malherbe et al., 2009b) for hOX2R. Cell membranes were prepared from recombinant cell lines; a CHO cell line transformed with hOX1R (GeneBank accession # NM_001525) and a HEK cell line transformed with hOX2R (GeneBank accession # NM_001526.2).
(§3) On the day of the assay, membranes containing hOX1R or hOX2R were captured onto SPA-beads. All test compounds were dissolved in 100% DMSO as 10 mM stock solutions, and prepared as 8-point semi-log dilution in 100% DMSO immediately prior to assay (final assay range 5 uM to 0.064 nM). The compound of Example 1 was co-administered with the appropriate OX-radioligand, and the SPA-membrane preparation added to initiate the assay. During the assay, any compound of Example 1 that bound to the receptors competed with radioligand and reduced the assay signal. Assay plates were read using PerkinElmer Microbeta2 allowing the binding profile of the compound of Example 1 to be assessed at room temperature (19° C.) over several time points (15, 60, 90, 120, 150 minutes, and 18 hours) in hOX1R and hOX2R assay formats.
(§4) End-point data values were determined as Specific Binding (SB) and expressed as a percentage of control (% SB), with 100% being the SB of OX-radioligand in the absence of competing unlabelled ligand, and 0% being the SB of the relevant OX-radioligand in the presence of an excess of the competing cold/unlabelled ligand (Suvorexant; a dual OXR-antagonist [DORA]).
(§5) TB=Total Bound (in presence of 0.5% DMSO); NSB=Non Specific Bound (in the presence of Suvorexant at 1 μM)=0%;
(§6) SB=Specific Bound (TB-NSB)=100%
(§7) Assay data were used to determine half maximal inhibitory concentration (IC50) using a four-parameter logistic model in XLfit and/or GraphPad Prism v5. IC50 were derived from plots of % SB against log 10 of the concentration of the compound of Example 1. The pKi were calculated from the IC50 using the Cheng-Prusoff correction: […]=IC50/(1+([L]/KD)) where [L] is the radioligand concentration in the displacement assay, and KD is the dissociation constant of the radioligand.
(§8) The Selectivity value is derived from the Ki [Ki (OX2R)/Ki(OX1R)].
(§9) was prepared and tested by analogous methods to those described above in Example 1 and Example 2 in respect of the compound of Example 1.

Assay [2] addresses T2, human recombinant OX2 (hOX2R) receptor (Homo sapiens, UniProt O43614).
T2 construct: expressed in transfected cells; host or cells: HEK cell line (membranes)
T2 sequence (O43614 1-444): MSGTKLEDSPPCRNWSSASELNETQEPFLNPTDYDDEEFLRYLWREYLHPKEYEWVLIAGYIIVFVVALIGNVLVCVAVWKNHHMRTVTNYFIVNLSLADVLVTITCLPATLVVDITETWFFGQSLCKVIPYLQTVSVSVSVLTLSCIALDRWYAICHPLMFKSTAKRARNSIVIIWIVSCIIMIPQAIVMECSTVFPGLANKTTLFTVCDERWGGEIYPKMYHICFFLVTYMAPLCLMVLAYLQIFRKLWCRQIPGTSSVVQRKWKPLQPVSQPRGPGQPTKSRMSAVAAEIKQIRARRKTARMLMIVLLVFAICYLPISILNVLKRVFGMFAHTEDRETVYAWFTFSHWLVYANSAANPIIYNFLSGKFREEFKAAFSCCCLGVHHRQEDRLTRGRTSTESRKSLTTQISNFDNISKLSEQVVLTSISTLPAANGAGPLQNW
Put plainly: Scintillation Proximity binding Assay (SPA), [3H]-EMPA displacement, membranes of HEK cell line transformed with hOX2R. The following applies: for Ki: 60 min, Cheng-Prusoff from IC50, geometric mean, read-out: hOX2R Binding pKi (60 min) (converted); for Selectivity OX2R/OX1R: selectivity calculated using Ki (Ox2R)/Ki(Ox1R). How it is done:
as §1, §2, §3, §4, §5, §6, §7, §8, §9

Setting [3] is: SPA, [3H]-EMPA, room temperature (19° C.), GeoMean, read-out: IC50 OX2R.
Where [4] appears, read: data at 60 min, read-out: OX2R pIC50 (converted).

Like-named read-outs stand apart in the source and are kept apart here.

`COc1ccc(C(=O)N2C[C@@H]3CN(c4cc(C)c(C#N)c(C)n4)C[C@@H]3C2)c(F)c1` [Example A, 6-[(3aS,4S,6aR)-5-(2-fluoro-4-methoxybenzoyl)-octahydropyrrolo[3,4-c]pyrrol-2-yl]-2,4-dimethylpyridine-3-carbonitrile, reference compound]: the Ki in assay [1] is 3630 nM; in assay [2], 85.1 nM. In addition, the figures for the IC50 in assay [1], in assay [2] (setting [3]) and in assay [2] (setting [4]) were 7840 nM, 150 nM and 151 nM, respectively. For the same compound, the “OX2R Selectivity (IC50 OX1R/OX2R)” value in assay [2] (IC50 ratio) was determined as 52. Besides, in assay [2], the “Selectivity OX2R/OX1R” value was 43.

`COc1ccc(C(=O)N2C[C@H]3CN(c4cc(C)c(C#N)c(C)n4)C[C@H]3[C@@H]2C)c(F)c1` [Example 1, 6-[(3aS,4S,6aR)-5-(2-fluoro-4-methoxybenzoyl)-4-methyl-octahydropyrrolo[3,4-c]pyrrol-2-yl]-2,4-dimethylpyridine-3-carbonitrile]: in assay [1], the “affinity for hOX1R (in words)” value was “high affinity”, the Ki is 47.9 nM and the IC50 turned out to be 97.7 nM. In addition, in assay [2], the “affinity for hOX2R (in words)” value was “high affinity”, the Ki was 0.724 nM and the “Selectivity OX2R/OX1R” value is 69. The IC50 in assay [2] (setting [3]) was 1.23 nM. The “affinity for hOX2R compared with comparative Example A (in words)” value in assay [2] (comparison) is “higher affinity”. In assay [2] (setting [4]), the IC50 was 1.23 nM. For the same compound, the “hOX2R Selectivity (IC50 hOX2R/hOX1R)” value in assay [2] (head says IC50 ratio) is listed as 69. For the same compound, in assay [2] (over hOX1R), the “selectivity for hOX2R” value turned out to be 69 fold. In assay [2] (room temperature (19° C.)), the “hOX2R Binding Equilibration Time” value was found to be 38 min.
